Reference: patent US20090111818A1, “Combinations of Eszopiclone and O-Desmethylvenlafaxine, and Methods of Treatment of Menopause and Mood, Anxiety, and Cognitive Disorders” (SEPRACOR INC., priority 2005, published 2009)

Experiments:
norepinephrine uptake = conditions: in vitro; cited from earlier work
dopamine uptake = conditions: in vitro; cited from earlier work
[1] = in vivo; cited from earlier work
[2] = test system: norepinephrine synaptosomal uptake; conditions: cited from earlier work
[3] = test system: women with insomnia secondary to perimenopause or menopause; assay: Clinical study of eszopiclone 3 mg vs placebo: number of nocturnal awakenings due to hot flashes; assay type: in vivo, human; conditions: Week 1; 3 mg nightly; p<0.0001
Experimental: The study was aimed at observing efficacy of eszopiclone 3 mg compared to placebo in the treatment of insomnia secondary to perimenopause or menopause.
The study was a multicenter, randomized, double-blind, placebo-controlled, parallel-group study. […] The primary method of analysis compared the post-randomization results between the two treatment groups.
Subjects were women with insomnia secondary to perimenopause or menopause. Subjects were perimenopausal or menopausal and had insomnia symptoms including ≧45 minutes sleep latency (SL) and total sleep time (TST) ≦6 hours. Perimenopausal/menopausal symptoms predated the onset of sleep disturbance symptoms. The patient population was predominately Caucasian (77.2%). The mean age was 49, with a range of 40-60.
A total of 410 subjects were randomized. Among them, 201 received 3 mg of eszopiclone (ESZ) nightly (at bedtime) for four weeks and 209 received matching placebo (PBO).

CN(C)CC(c1ccc(O)cc1)C1(O)CCCCC1 (racemic) [O-desmethylvenlafaxine, (±)-1-[2-(dimethylamino)-1-(4-hydroxyphenyl)ethyl]-cyclohexanol]
inhibition of norepinephrine uptake compared with the parent compound venlafaxine (norepinephrine uptake): more potent inhibitor | inhibition of dopamine uptake compared with the parent compound venlafaxine (dopamine uptake): more potent inhibitor | half-life (t½) [1]: about 10 hours | half-life relative to that of venlafaxine [1]: approximately 2.5 times

COc1ccc(C(CN(C)C)C2(O)CCCCC2)cc1 (single isomer, unassigned) [venlafaxine (−) enantiomer]
inhibition of norepinephrine synaptosomal uptake, comparison of enantiomers [2]: more potent inhibitor

CN1CCN(C(=O)O[C@H]2c3nccnc3C(=O)N2c2ccc(Cl)cn2)CC1 [Eszopiclone, (+) 6-(5-chloropyrid-2-yl)-5-(4-methylpiperazin-1-yl)carbonyloxy-7-oxo-6,7-dihydro-5H-pyrrolo[3-4-b]pyrazine]
change from baseline in number of nocturnal awakenings due to hot flashes compared with PBO [3]: significantly reduced
